Earlier results in patent US20250352523A1, “TRIPLE PHARMACEUTICAL COMPOSITION FOR PROTEINACEOUS INFECTION” (priority 2024, published 2025).

What was measured:
AD = settings: in vivo
patients with AD = settings: human, in vivo
AD patients = settings: twelve months' treatment, versus placebo

Structure (SMILES)	beneficial effects on AD (AD)	also measured
CC(=O)Nc1ccc(O)cc1 [Acetaminophen]	not found to have beneficial effects	
COc1ccc2cc([C@H](C)C(=O)O)ccc2c1 [Naproxen]		cognitive function in patients with AD (patients with AD): did not improve cognitive function
CC(=O)Oc1ccccc1C(=O)O [aspirin]	not found to have beneficial effects	
CO[C@H]1/C=C/O[C@@]2(C)Oc3c(C)c(O)c4c(O)c(c(/C=N/N5CCN(C)CC5)c(O)c4c3C2=O)NC(=O)/C(C)=C\C=C\[C@H](C)[C@H](O)[C@@H](C)[C@@H](O)[C@@H](C)[C@H](OC(C)=O)[C@@H]1C [rifampin]		effects on cognition or function in AD (AD patients): no beneficial effects
